Assay results: PMC9740702, “Binding and Detoxification of Insecticides by Potentially Probiotic Lactic Acid Bacteria Isolated from Honeybee (Apis mellifera L.) Environment—An In Vitro Study” (Cells, 2022)

Tests used:
[1] = tested on: prostate epithelial WPM-Y1 cell line; parameters: method as in PMID 33456462; conditions: 24 h, MTT assay; read-out: median inhibition value; cited from earlier work
LAB strains [2] = experiment: Binding of pesticides to the cell wall of LAB (extent of binding); conditions: whole live LAB cells, initial 100 µg/mL, 24 h
Procedure: Overnight cultures of LAB in MRS/MRS-F broth were centrifuged (3864× g, 15 min), and biomass was washed with sterile ultrapure water and centrifuged again. This procedure was repeated until the MRS/MRS-F broth was completely washed. Next, the biomass of whole live LAB cells was suspended in sterile ultrapure water with an individual pesticide solution (at a final concentration of 100 µg/mL, v/v) and thoroughly mixed. The density of LAB cells was 1.8–2.4 × 10^9 CFU/mL (6.0–8.0 according to McFarland standard). The positive controls (standards) were individual pesticides without LAB strains. Negative controls were LAB strains suspended in sterile ultrapure water without pesticides. The samples were incubated anaerobically at 30 °C for 24 h with continuous orbital shaking (240 r.p.m.) (LAUDA Varioshake VS 8 OE Shaker, Dr. R. Wobser Gmbh & Co., Lauda-Königshofen, […]). Finally, the supernatants containing residual pesticide were collected by centrifugation (10,733× g, 20 min) and were filtered using sterile syringe filters (0.22 μm) and frozen in sterile vials until analysis at −20 °C.
Pesticides were analyzed according to Hafeez et al. (2015) using the HPLC-DAD technique with some modifications. For the qualitative–quantitative determination of pesticides, HPLC analysis was performed using a UHPLC+ Dionex UltiMate 3000 system (Thermo Fisher Scientific Inc., Waltham, MA, USA) equipped with a UV–Vis detector (Thermo Fisher Scientific Inc., Waltham, MA, USA) and NUCLEOSIL C18 column (4.6 × 250 mm, 5 µm particle size; Macherey-Nagel, Germany). Isocratic elution was carried out with 70/30 (v/v) acetonitrile/water as the mobile phase. The flow rate was set to 1.0 mL/min, and the column temperature was 25 °C. The injection volume was 20 µL. Detection and quantification were performed with two wavelengths: 219 nm for chlorpyrifos and coumaphos and 270 nm for imidacloprid. Quantification was performed using an external standard method. All measurements were made twice.

P. acidilactici 8/1 = experiment: Effect of pesticides on the growth of LAB (microtitration assay); type: cell-based, Pediococcus acidilactici; conditions: 100 µg/mL, 48 h incubation, versus non-exposed cells
Procedure: (§1) The experiments were conducted in transparent 96-well polystyrene microplates. The final concentrations of tested pesticides were 20, 100, and 500 µg/mL. Each well was inoculated with an overnight culture of an individual LAB strain at the density of 1.8–2.4 × 10^9 CFU/mL (6.0–8.0 according to McFarland standard). Each strain was tested in 4 replicates. Negative controls were non-exposed bacterial cells in MRS or MRS-F broth. The test was performed at 30 or 37 °C for 48 h.

[3] = tested on: cat (Felis catus) fibroblast cells; conditions: cited from earlier work
LAB = tested on: LAB; parameters: method as in earlier work; conditions: concentrations above 2 ppm; cited from earlier work
P. pentosaceus 14/1 = experiment: Effect of pesticides on the growth of LAB (microtitration assay); type: cell-based, Pediococcus pentosaceus; conditions: 48 h incubation, versus non-exposed cells
Procedure: as §1

[4] = tested on: Enterococcus faecium E86, Lactococcus lactis subsp. lactis ATCC 11454, L. rhamnosus GG ATCC 53103, L. lactis Garvie ATCC 19256, Leuconostoc mesenteroides subsp.; parameters: method as in doi:10.1016/j.lwt.2019.02.037; conditions: 500 mg/L; cited from earlier work
LAB strains [5] = tested on: LAB strains; parameters: method as in PMID 28324568; conditions: cited from earlier work
L. plantarum ISO = tested on: L. plantarum ISO; parameters: method as in PMID 28578396; conditions: 295 µM, MRS medium, log phase; cited from earlier work

SMILES: O=[N+]([O-])NC1=NCCN1Cc1ccc(Cl)nc1 [imidacloprid]
- IC50 [1]: 23 µM
- pesticide binding by LAB (highest extent) (LAB strains [2]): ≤ 36%
- pesticide binding by LAB (highest extent) (LAB strains [2]; listed as Imidacloprid): about 36%
- bacterial growth (P. acidilactici 8/1): 101.84%

SMILES: CCOC(=O)CC(SP(=S)(OC)OC)C(=O)OCC (stereo not shown) [Malathion]
- concentration at which maximum DNA damage was recorded [3]: 45000 µM

SMILES: ClC1=C(Cl)C2(Cl)C3C4CC(C5OC45)C3C1(Cl)C2(Cl)Cl (stereo not shown) [endrin]
- effect on lactic acid production by LAB (LAB): completely inhibited

SMILES: CCOP(=S)(OCC)Oc1nc(Cl)c(Cl)cc1Cl [chlorpyrifos]
- bacterial growth (P. pentosaceus 14/1; 20 µg/mL): 99.94%
- effect on growth of LAB [4]: did not affect the growth
- chlorpyrifos concentration at which some LAB strains were able to grow (LAB strains [5]): > 1400 µg/mL
- effect on growth of L. plantarum ISO (L. plantarum ISO): significantly reduced the growth

SMILES: CCOP(=S)(OCC)Oc1ccc2c(C)c(Cl)c(=O)oc2c1 [coumaphos]
- pesticide binding by LAB (highest extent) (LAB strains [2]): up to 57%
- bacterial growth (P. pentosaceus 14/1; 500 µg/mL): 100.6%

SMILES: Cl[C@H]1[C@H](Cl)[C@@H](Cl)[C@@H](Cl)[C@H](Cl)[C@H]1Cl [lindane]
- effect on lactic acid production by LAB (LAB): completely inhibited
